Data as given in PubChem BioAssay AID248 (DTP/NCI, 2004).
Toxic doses and inconclusive results are not listed. Rule as the data show it: active = T/C of 150% or more; inactive = T/C below 125%.

Test system: L1210 leukemia ip in BDF1 mice, survival T/C
Test: NCI In Vivo Anticancer Drug Screen. Data for tumor model L1210 Leukemia (intraperitoneal) in B6D2F1 (BDF1) mice
Settings: endpoint: mean survival time, higher = longer survival
Summary of the method: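 Read-out is survival time, reported as the treated-group measurement over the vehicle-control measurement.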

[1] = dose: 100.0 mg/kg/injection, schedule: Q01DX009 (ip), vehicle: saline with Tween-80
[2] = dose: 100.0 mg/kg/injection, schedule: Q04DX003 (ip), vehicle: saline with Tween-80
[3] = dose: 200.0 mg/kg/injection, schedule: Q04DX003 (ip), vehicle: saline with Tween-80
[4] = dose: 400.0 mg/kg/injection, schedule: Q04DX003 (ip), vehicle: saline with Tween-80
[5] = dose: 25.0 mg/kg/injection, schedule: Q01DX001 (ip), vehicle: saline with Tween-80
[6] = dose: 50.0 mg/kg/injection, schedule: Q01DX001 (ip), vehicle: saline with Tween-80
[7] = dose: 100.0 mg/kg/injection, schedule: Q01DX001 (ip), vehicle: saline with Tween-80
[8] = dose: 50.0 mg/kg/injection, schedule: Q01DX009 (ip), vehicle: Klucel (hydroxypropylcellulose) (HPC)
[9] = dose: 100.0 mg/kg/injection, schedule: Q01DX009 (ip), vehicle: Klucel (hydroxypropylcellulose) (HPC)

Measured: T/C

O=C(CBr)OCS(=O)(=O)O
inactive: dose: 75.0 mg/kg/injection, schedule: Q01DX001 (ip), vehicle: saline 102 % of control | dose: 150.0 mg/kg/injection, schedule: Q01DX001 (ip), vehicle: saline 96 % of control | dose: 300.0 mg/kg/injection, schedule: Q01DX001 (ip), vehicle: saline 100 % of control

N#Cc1oc2ccccc2c1O
inactive: dose: 25.0 mg/kg/injection, schedule: Q01DX009 (ip), vehicle: saline with Tween-80 92 % of control | dose: 50.0 mg/kg/injection, schedule: Q01DX009 (ip), vehicle: saline with Tween-80 96 % of control | [1] 92 % of control | [2] 103 % of control

CCOC(=O)c1c(-c2ccccc2)csc1NC(=O)c1ccccc1
inactive: dose: 50.0 mg/kg/injection, schedule: Q04DX003 (ip), vehicle: saline with Tween-80 92 % of control | [2] 90 % of control | [3] 89 % of control | [4] 90 % of control

O=c1[nH]cc(S(=O)(=O)Nc2ccccc2)c(=O)[nH]1
inactive: [5] 106 % of control | [6] 103 % of control | [7] 103 % of control

O=C1CC2(C(=O)O)CC3CC2C(O1)C3I (stereo not drawn)
inactive: dose: 100.0 mg/kg/injection, schedule: Q01DX009 (ip), vehicle: carboxymethylcellulose (CMC) 86 % of control | dose: 100.0 mg/kg/injection, schedule: Q04DX003 (ip), vehicle: carboxymethylcellulose (CMC) 105 % of control | dose: 200.0 mg/kg/injection, schedule: Q01DX009 (ip), vehicle: carboxymethylcellulose (CMC) 96 % of control | dose: 200.0 mg/kg/injection, schedule: Q04DX003 (ip), vehicle: carboxymethylcellulose (CMC) 97 % of control | dose: 400.0 mg/kg/injection, schedule: Q01DX009 (ip), vehicle: carboxymethylcellulose (CMC) 94 % of control | dose: 400.0 mg/kg/injection, schedule: Q04DX003 (ip), vehicle: carboxymethylcellulose (CMC) 103 % of control

CN(C)C(=S)SSC(=S)N(C)C
inactive: [8] 92 % of control | [9] 99 % of control | dose: 100.0 mg/kg/injection, schedule: Q04DX003 (ip), vehicle: other 95 % of control | dose: 200.0 mg/kg/injection, schedule: Q04DX003 (ip), vehicle: other 103 % of control | dose: 400.0 mg/kg/injection, schedule: Q04DX003 (ip), vehicle: other 96 % of control

C=C1CCC(c2ccccc2)N(C)C1=O (stereo not drawn)
inactive: [5] 104 % of control | [6] 101 % of control | [7] 98 % of control | dose: 200.0 mg/kg/injection, schedule: Q01DX001 (ip), vehicle: saline with Tween-80 98 % of control

C=CCNC(=O)Oc1cccc(NC(=O)/C=C/C)c1
inactive: [1] 88 % of control | [2] 97 % of control | [3] 95 % of control | [4] 92 % of control

CC1CC(=O)NC(=O)N1 (stereo not drawn)
inactive: [1] 98 % of control | [2] 105 % of control | dose: 200.0 mg/kg/injection, schedule: Q01DX009 (ip), vehicle: saline with Tween-80 100 % of control | [3] 93 % of control | dose: 400.0 mg/kg/injection, schedule: Q01DX009 (ip), vehicle: saline with Tween-80 106 % of control | [4] 107 % of control

O=[N+]([O-])c1cc([As](=O)(O)O)ccc1Cl
inactive: [8] 97 % of control | [9] 97 % of control | dose: 100.0 mg/kg/injection, schedule: Q04DX003 (ip), vehicle: Klucel (hydroxypropylcellulose) (HPC) 100 % of control | dose: 200.0 mg/kg/injection, schedule: Q04DX003 (ip), vehicle: Klucel (hydroxypropylcellulose) (HPC) 104 % of control
